Measured values taken from PubChem BioAssay (NCI).
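Where inhibition never reached the appropriate level, the endpoint shown equals the highest concentration tested. Otherwise, values were interpolated linearly from a five-concentration, 48-hour dose response in 96-well plates. TGI denotes the concentration required for complete inhibition of growth.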

How the values were obtained:
Assay in all cases: NCI-60 cell line screen, 48 h
786-0 renal = system: 786-0 renal
A498 renal = system: A498 renal
A549 NSCLC = system: A549 NSCLC
ACHN renal = system: ACHN renal
CCRF-CEM leukemia = system: CCRF-CEM leukemia
COLO 205 colon = system: COLO 205 colon
DMS 114 small cell lung = system: DMS 114 small cell lung
DMS 273 small cell lung = system: DMS 273 small cell lung
EKVX NSCLC = system: EKVX NSCLC
HCC-2998 colon = system: HCC-2998 colon
HCT-116 colon = system: HCT-116 colon
HCT-15 colon = system: HCT-15 colon
HL-60(TB) leukemia = system: HL-60(TB) leukemia
HOP-62 NSCLC = system: HOP-62 NSCLC
HOP-92 NSCLC = system: HOP-92 NSCLC
HT29 colon = system: HT29 colon
IGROV1 ovarian = system: IGROV1 ovarian
K-562 leukemia = system: K-562 leukemia
KM12 colon = system: KM12 colon
KM20L2 colon = system: KM20L2 colon
LOX IMVI melanoma = system: LOX IMVI melanoma
LXFL 529 NSCLC = system: LXFL 529 NSCLC
M14 melanoma = system: M14 melanoma
M19-MEL melanoma = system: M19-MEL melanoma
MALME-3M melanoma = system: MALME-3M melanoma
MOLT-4 leukemia = system: MOLT-4 leukemia
NCI-H226 lung = system: NCI-H226 lung
NCI-H23 lung = system: NCI-H23 lung
NCI-H460 lung = system: NCI-H460 lung
OVCAR-3 ovarian = system: OVCAR-3 ovarian
OVCAR-4 ovarian = system: OVCAR-4 ovarian
OVCAR-5 ovarian = system: OVCAR-5 ovarian
OVCAR-8 ovarian = system: OVCAR-8 ovarian
RPMI-8226 leukemia = system: RPMI-8226 leukemia
SF-268 CNS = system: SF-268 CNS
SF-295 CNS = system: SF-295 CNS
SF-539 CNS = system: SF-539 CNS
SK-MEL-2 melanoma = system: SK-MEL-2 melanoma
SK-MEL-28 melanoma = system: SK-MEL-28 melanoma
SK-MEL-5 melanoma = system: SK-MEL-5 melanoma
SK-OV-3 ovarian = system: SK-OV-3 ovarian
SN12C renal = system: SN12C renal
SNB-19 CNS = system: SNB-19 CNS
SNB-78 CNS = system: SNB-78 CNS
SR leukemia = system: SR leukemia
SW-620 colon = system: SW-620 colon
TK-10 renal = system: TK-10 renal
U251 CNS = system: U251 CNS
UACC-257 melanoma = system: UACC-257 melanoma
UACC-62 melanoma = system: UACC-62 melanoma
UO-31 renal = system: UO-31 renal
CAKI-1 renal = system: CAKI-1 renal
DU-145 prostate = system: DU-145 prostate
HOP-18 NSCLC = system: HOP-18 NSCLC
HS 578T breast = system: HS 578T breast
MCF7 breast = system: MCF7 breast
MDA-MB-231 breast = system: MDA-MB-231 breast
MDA-MB-435 = system: MDA-MB-435
MDA-N = system: MDA-N
NCI/ADR-RES ovarian = system: NCI/ADR-RES ovarian
PC-3 prostate = system: PC-3 prostate
RXF 393 renal = system: RXF 393 renal
SNB-75 CNS = system: SNB-75 CNS
T-47D breast = system: T-47D breast
BT-549 breast = system: BT-549 breast
NCI-H522 lung = system: NCI-H522 lung

`CC(=O)NNc1nc(C)c(C(=O)NNC(=O)C(=O)Nc2c(Cl)cc([N+](=O)[O-])cc2Cl)s1` was tested, and the TGI (786-0 renal) was > 100 µM, the TGI (A498 renal) was 66.3 µM and the TGI (A549 NSCLC) was > 100 µM. For the same compound, the TGI (ACHN renal) was > 100 µM, the TGI (CCRF-CEM leukemia) was 93.4 µM and the TGI (COLO 205 colon) was > 100 µM. The TGI (DMS 114 small cell lung) was 94.9 µM, the TGI (DMS 273 small cell lung) was > 100 µM and the TGI (EKVX NSCLC) was > 100 µM. The TGI (HCC-2998 colon) was > 100 µM, the TGI (HCT-116 colon) was > 100 µM and the TGI (HCT-15 colon) was > 100 µM. The TGI (HL-60(TB) leukemia) was 84.7 µM, the TGI (HOP-62 NSCLC) was > 100 µM and the TGI (HOP-92 NSCLC) was 56.2 µM. For the same compound, the TGI (HT29 colon) was > 100 µM, the TGI (IGROV1 ovarian) was > 100 µM and the TGI (K-562 leukemia) was > 100 µM. For the same compound, the TGI (KM12 colon) was > 100 µM, the TGI (KM20L2 colon) was > 100 µM and the TGI (LOX IMVI melanoma) was > 100 µM. For the same compound, the TGI (LXFL 529 NSCLC) was > 100 µM, the TGI (M14 melanoma) was > 100 µM and the TGI (M19-MEL melanoma) was > 100 µM. The TGI (MALME-3M melanoma) was > 100 µM, the TGI (MOLT-4 leukemia) was 97.6 µM and the TGI (NCI-H226 lung) was 82.6 µM. For the same compound, the TGI (NCI-H23 lung) was 36.7 µM, the TGI (NCI-H460 lung) was > 100 µM and the TGI (OVCAR-3 ovarian) was 52.8 µM. For the same compound, the TGI (OVCAR-4 ovarian) was 63.2 µM, the TGI (OVCAR-5 ovarian) was 93.4 µM and the TGI (OVCAR-8 ovarian) was > 100 µM. For the same compound, the TGI (RPMI-8226 leukemia) was > 100 µM, the TGI (SF-268 CNS) was 86.1 µM and the TGI (SF-295 CNS) was > 100 µM. For the same compound, the TGI (SF-539 CNS) was 66.8 µM, the TGI (SK-MEL-2 melanoma) was > 100 µM and the TGI (SK-MEL-28 melanoma) was 69.8 µM. The TGI (SK-MEL-5 melanoma) was > 100 µM, the TGI (SK-OV-3 ovarian) was > 100 µM and the TGI (SN12C renal) was > 100 µM. The TGI (SNB-19 CNS) was > 100 µM, the TGI (SNB-78 CNS) was > 100 µM and the TGI (SR leukemia) was > 100 µM. The TGI (SW-620 colon) was 78.5 µM, the TGI (TK-10 renal) was > 100 µM and the TGI (U251 CNS) was > 100 µM. The TGI (UACC-257 melanoma) was 68.7 µM, the TGI (UACC-62 melanoma) was 86.2 µM and the TGI (UO-31 renal) was 87.1 µM.
`Cc1cc(=O)[nH]c(NN2C(Cl)C(=O)C2c2ccccc2O)n1` (stereo not drawn) was tested, and the TGI (786-0 renal) was > 100 µM, the TGI (A498 renal) was > 100 µM and the TGI (A549 NSCLC) was > 100 µM. For the same compound, the TGI (ACHN renal) was > 100 µM, the TGI (CAKI-1 renal) was > 100 µM and the TGI (CCRF-CEM leukemia) was > 100 µM. For the same compound, the TGI (COLO 205 colon) was > 76.8 µM, the TGI (DMS 114 small cell lung) was 6.44 µM and the TGI (DMS 273 small cell lung) was 15.3 µM. For the same compound, the TGI (DU-145 prostate) was > 100 µM, the TGI (EKVX NSCLC) was > 75.1 µM and the TGI (HCC-2998 colon) was > 100 µM. For the same compound, the TGI (HCT-116 colon) was > 42.7 µM, the TGI (HCT-15 colon) was > 100 µM and the TGI (HL-60(TB) leukemia) was > 100 µM. For the same compound, the TGI (HOP-18 NSCLC) was 8.97 µM, the TGI (HOP-62 NSCLC) was > 100 µM and the TGI (HOP-92 NSCLC) was 32.4 µM. For the same compound, the TGI (HS 578T breast) was > 100 µM, the TGI (HT29 colon) was > 100 µM and the TGI (IGROV1 ovarian) was > 100 µM. The TGI (K-562 leukemia) was > 100 µM, the TGI (KM12 colon) was > 100 µM and the TGI (KM20L2 colon) was > 100 µM. The TGI (LOX IMVI melanoma) was > 100 µM, the TGI (LXFL 529 NSCLC) was 54.5 µM and the TGI (M14 melanoma) was > 34.7 µM. For the same compound, the TGI (M19-MEL melanoma) was > 100 µM, the TGI (MCF7 breast) was > 100 µM and the TGI (MDA-MB-231 breast) was > 100 µM. For the same compound, the TGI (MDA-MB-435) was > 100 µM, the TGI (MDA-N) was > 100 µM and the TGI (MOLT-4 leukemia) was > 100 µM. The TGI (NCI-H226 lung) was 9.16 µM, the TGI (NCI-H23 lung) was > 100 µM and the TGI (NCI-H460 lung) was > 100 µM. The TGI (NCI/ADR-RES ovarian) was 40.4 µM, the TGI (OVCAR-3 ovarian) was 23.3 µM and the TGI (OVCAR-4 ovarian) was > 100 µM. The TGI (OVCAR-5 ovarian) was > 100 µM, the TGI (OVCAR-8 ovarian) was > 100 µM and the TGI (PC-3 prostate) was > 100 µM. For the same compound, the TGI (RPMI-8226 leukemia) was > 63.2 µM, the TGI (RXF 393 renal) was > 100 µM and the TGI (SF-268 CNS) was > 100 µM. The TGI (SF-295 CNS) was > 100 µM, the TGI (SF-539 CNS) was > 58.6 µM and the TGI (SK-MEL-2 melanoma) was > 100 µM. The TGI (SK-MEL-28 melanoma) was > 65.4 µM, the TGI (SK-MEL-5 melanoma) was 17.2 µM and the TGI (SK-OV-3 ovarian) was > 100 µM. The TGI (SN12C renal) was > 64 µM, the TGI (SNB-19 CNS) was > 100 µM and the TGI (SNB-75 CNS) was > 76.2 µM. The TGI (SNB-78 CNS) was > 100 µM, the TGI (SR leukemia) was > 100 µM and the TGI (SW-620 colon) was > 100 µM. The TGI (T-47D breast) was > 100 µM, the TGI (TK-10 renal) was > 100 µM and the TGI (U251 CNS) was > 100 µM. For the same compound, the TGI (UACC-257 melanoma) was > 100 µM, the TGI (UACC-62 melanoma) was > 46.7 µM and the TGI (UO-31 renal) was > 78.1 µM.
With `c1ccc2cc(-c3cc(-c4cc(-c5ccc6ccccc6c5)on4)no3)ccc2c1` the TGI (786-0 renal) was > 100 µM, the TGI (A498 renal) was > 100 µM and the TGI (A549 NSCLC) was > 100 µM. The TGI (ACHN renal) was > 100 µM, the TGI (BT-549 breast) was > 100 µM and the TGI (CAKI-1 renal) was > 100 µM. The TGI (CCRF-CEM leukemia) was > 100 µM, the TGI (COLO 205 colon) was > 100 µM and the TGI (DU-145 prostate) was > 100 µM. The TGI (EKVX NSCLC) was > 100 µM, the TGI (HCC-2998 colon) was > 100 µM and the TGI (HCT-116 colon) was > 100 µM. The TGI (HCT-15 colon) was > 100 µM, the TGI (HL-60(TB) leukemia) was > 100 µM and the TGI (HOP-62 NSCLC) was > 100 µM. For the same compound, the TGI (HOP-92 NSCLC) was > 100 µM, the TGI (HS 578T breast) was > 100 µM and the TGI (HT29 colon) was > 100 µM. The TGI (IGROV1 ovarian) was > 100 µM, the TGI (K-562 leukemia) was > 100 µM and the TGI (KM12 colon) was > 100 µM. The TGI (LOX IMVI melanoma) was > 100 µM, the TGI (M14 melanoma) was > 100 µM and the TGI (MALME-3M melanoma) was > 100 µM. For the same compound, the TGI (MCF7 breast) was > 100 µM, the TGI (MDA-MB-231 breast) was > 100 µM and the TGI (MDA-MB-435) was > 100 µM. For the same compound, the TGI (MDA-N) was > 100 µM, the TGI (MOLT-4 leukemia) was > 100 µM and the TGI (NCI-H226 lung) was > 100 µM. For the same compound, the TGI (NCI-H23 lung) was > 100 µM, the TGI (NCI-H460 lung) was > 100 µM and the TGI (NCI-H522 lung) was > 100 µM. The TGI (NCI/ADR-RES ovarian) was > 100 µM, the TGI (OVCAR-3 ovarian) was > 100 µM and the TGI (OVCAR-4 ovarian) was > 100 µM. The TGI (OVCAR-5 ovarian) was > 100 µM, the TGI (OVCAR-8 ovarian) was > 100 µM and the TGI (PC-3 prostate) was > 100 µM. The TGI (RPMI-8226 leukemia) was > 100 µM, the TGI (RXF 393 renal) was > 100 µM and the TGI (SF-268 CNS) was > 100 µM. The TGI (SF-295 CNS) was > 100 µM, the TGI (SF-539 CNS) was > 100 µM and the TGI (SK-MEL-2 melanoma) was > 100 µM. For the same compound, the TGI (SK-MEL-28 melanoma) was > 100 µM, the TGI (SK-MEL-5 melanoma) was > 100 µM and the TGI (SK-OV-3 ovarian) was > 100 µM. The TGI (SN12C renal) was > 100 µM, the TGI (SNB-19 CNS) was > 100 µM and the TGI (SNB-75 CNS) was > 100 µM. The TGI (SR leukemia) was > 100 µM, the TGI (SW-620 colon) was > 100 µM and the TGI (T-47D breast) was > 100 µM. The TGI (TK-10 renal) was > 100 µM, the TGI (U251 CNS) was > 100 µM and the TGI (UACC-257 melanoma) was > 100 µM. The TGI (UACC-62 melanoma) was > 100 µM and the TGI (UO-31 renal) was > 100 µM.
